# In PubChem BioAssay (NCI):
#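 Cultured in 96-well plates, cells were exposed to test compound for 48 hours across five concentrations. TGI denotes the concentration required for complete inhibition of growth.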
# Columns and labels:
# Assay in all cases: inhibition of tumour cell growth, NCI panel, 48 h
# HCT-15 colon = system: HCT-15 colon
# KM20L2 colon = system: KM20L2 colon
# SN12C renal = system: SN12C renal
# HT29 colon = system: HT29 colon
# SNB-78 CNS = system: SNB-78 CNS
# ACHN renal = system: ACHN renal
# MALME-3M melanoma = system: MALME-3M melanoma
# MOLT-4 leukemia = system: MOLT-4 leukemia
# M14 melanoma = system: M14 melanoma
# SNB-75 CNS = system: SNB-75 CNS
# UACC-62 melanoma = system: UACC-62 melanoma
# NCI-H226 lung = system: NCI-H226 lung
# OVCAR-8 ovarian = system: OVCAR-8 ovarian
# U251 CNS = system: U251 CNS
# OVCAR-4 ovarian = system: OVCAR-4 ovarian
# LXFL 529 NSCLC = system: LXFL 529 NSCLC
# UO-31 renal = system: UO-31 renal
# SF-295 CNS = system: SF-295 CNS
# UACC-257 melanoma = system: UACC-257 melanoma
# KM12 colon = system: KM12 colon
# SNB-19 CNS = system: SNB-19 CNS
# HL-60(TB) leukemia = system: HL-60(TB) leukemia
# SW-620 colon = system: SW-620 colon
# M19-MEL melanoma = system: M19-MEL melanoma
# TK-10 renal = system: TK-10 renal
# SF-539 CNS = system: SF-539 CNS
# A549 NSCLC = system: A549 NSCLC
# RPMI-8226 leukemia = system: RPMI-8226 leukemia
# HOP-18 NSCLC = system: HOP-18 NSCLC
# 786-0 renal = system: 786-0 renal
# SK-MEL-5 melanoma = system: SK-MEL-5 melanoma
# OVCAR-3 ovarian = system: OVCAR-3 ovarian
# NCI-H23 lung = system: NCI-H23 lung
# SK-MEL-2 melanoma = system: SK-MEL-2 melanoma
# NCI-H460 lung = system: NCI-H460 lung
# COLO 205 colon = system: COLO 205 colon
# HCT-116 colon = system: HCT-116 colon
# EKVX NSCLC = system: EKVX NSCLC
# CAKI-1 renal = system: CAKI-1 renal
# OVCAR-5 ovarian = system: OVCAR-5 ovarian
# DLD-1 colon = system: DLD-1 colon
# SR leukemia = system: SR leukemia
# A498 renal = system: A498 renal
# DMS 273 small cell lung = system: DMS 273 small cell lung
# NCI-H522 lung = system: NCI-H522 lung
# CCRF-CEM leukemia = system: CCRF-CEM leukemia
# XF 498 CNS = system: XF 498 CNS
# RXF-631 renal = system: RXF-631 renal
# HCC-2998 colon = system: HCC-2998 colon
# IGROV1 ovarian = system: IGROV1 ovarian
# K-562 leukemia = system: K-562 leukemia
# HOP-62 NSCLC = system: HOP-62 NSCLC
# SK-OV-3 ovarian = system: SK-OV-3 ovarian
# SF-268 CNS = system: SF-268 CNS
# HOP-92 NSCLC = system: HOP-92 NSCLC
# RXF 393 renal = system: RXF 393 renal
# LOX IMVI melanoma = system: LOX IMVI melanoma
# DMS 114 small cell lung = system: DMS 114 small cell lung
# SK-MEL-28 melanoma = system: SK-MEL-28 melanoma
structure (smiles),measurement,setting,value
C/C(CN1C(=O)c2ccccc2C1=O)=N\NS(=O)(=O)c1ccc(Cl)cc1,TGI,HCT-15 colon,> 100 µM
same,TGI,KM20L2 colon,> 100 µM
same,TGI,SN12C renal,> 100 µM
same,TGI,HT29 colon,> 100 µM
same,TGI,SNB-78 CNS,> 100 µM
same,TGI,ACHN renal,> 100 µM
same,TGI,MALME-3M melanoma,> 100 µM
same,TGI,MOLT-4 leukemia,> 100 µM
same,TGI,M14 melanoma,> 100 µM
same,TGI,SNB-75 CNS,> 100 µM
same,TGI,UACC-62 melanoma,> 100 µM
same,TGI,NCI-H226 lung,> 100 µM
same,TGI,OVCAR-8 ovarian,> 100 µM
same,TGI,U251 CNS,> 100 µM
same,TGI,OVCAR-4 ovarian,> 100 µM
same,TGI,LXFL 529 NSCLC,> 100 µM
same,TGI,UO-31 renal,> 100 µM
same,TGI,SF-295 CNS,> 100 µM
same,TGI,UACC-257 melanoma,> 100 µM
same,TGI,KM12 colon,> 100 µM
same,TGI,SNB-19 CNS,> 100 µM
same,TGI,HL-60(TB) leukemia,> 100 µM
same,TGI,SW-620 colon,> 100 µM
same,TGI,M19-MEL melanoma,> 100 µM
same,TGI,TK-10 renal,> 100 µM
same,TGI,SF-539 CNS,> 100 µM
same,TGI,A549 NSCLC,> 100 µM
same,TGI,RPMI-8226 leukemia,> 100 µM
same,TGI,HOP-18 NSCLC,> 100 µM
same,TGI,786-0 renal,> 100 µM
same,TGI,SK-MEL-5 melanoma,> 100 µM
same,TGI,OVCAR-3 ovarian,> 100 µM
same,TGI,NCI-H23 lung,> 100 µM
same,TGI,SK-MEL-2 melanoma,> 100 µM
same,TGI,NCI-H460 lung,> 100 µM
same,TGI,COLO 205 colon,> 100 µM
same,TGI,HCT-116 colon,> 100 µM
same,TGI,EKVX NSCLC,> 100 µM
same,TGI,CAKI-1 renal,> 100 µM
same,TGI,OVCAR-5 ovarian,> 100 µM
same,TGI,DLD-1 colon,> 100 µM
same,TGI,SR leukemia,> 100 µM
same,TGI,A498 renal,> 100 µM
same,TGI,DMS 273 small cell lung,> 100 µM
same,TGI,NCI-H522 lung,> 100 µM
same,TGI,CCRF-CEM leukemia,> 100 µM
same,TGI,XF 498 CNS,> 100 µM
same,TGI,RXF-631 renal,> 100 µM
same,TGI,HCC-2998 colon,> 100 µM
same,TGI,IGROV1 ovarian,> 100 µM
same,TGI,K-562 leukemia,> 100 µM
same,TGI,HOP-62 NSCLC,> 100 µM
O=c1[nH]c2cc(Cl)ccc2nc1/C(=N\Nc1ccccc1)C(O)c1ccc(Cl)c(Cl)c1 (stereo unspecified),TGI,HCT-15 colon,> 100 µM
same,TGI,KM20L2 colon,> 100 µM
same,TGI,SN12C renal,> 100 µM
same,TGI,HT29 colon,> 100 µM
same,TGI,SNB-78 CNS,> 100 µM
same,TGI,ACHN renal,> 100 µM
same,TGI,SK-OV-3 ovarian,> 100 µM
same,TGI,MALME-3M melanoma,> 100 µM
same,TGI,MOLT-4 leukemia,> 100 µM
same,TGI,M14 melanoma,> 100 µM
same,TGI,SNB-75 CNS,> 100 µM
same,TGI,UACC-62 melanoma,> 100 µM
same,TGI,NCI-H226 lung,> 100 µM
same,TGI,OVCAR-8 ovarian,> 100 µM
same,TGI,U251 CNS,> 100 µM
same,TGI,OVCAR-4 ovarian,> 100 µM
same,TGI,LXFL 529 NSCLC,> 100 µM
same,TGI,UO-31 renal,> 100 µM
same,TGI,SF-295 CNS,> 100 µM
same,TGI,UACC-257 melanoma,> 100 µM
same,TGI,SF-268 CNS,> 100 µM
same,TGI,KM12 colon,> 100 µM
same,TGI,SNB-19 CNS,> 100 µM
same,TGI,HL-60(TB) leukemia,> 100 µM
same,TGI,HOP-92 NSCLC,> 100 µM
same,TGI,SW-620 colon,> 100 µM
same,TGI,M19-MEL melanoma,> 100 µM
same,TGI,RXF 393 renal,> 100 µM
same,TGI,TK-10 renal,> 100 µM
same,TGI,SF-539 CNS,> 100 µM
same,TGI,A549 NSCLC,> 100 µM
same,TGI,RPMI-8226 leukemia,> 100 µM
same,TGI,786-0 renal,> 100 µM
same,TGI,SK-MEL-5 melanoma,> 100 µM
same,TGI,OVCAR-3 ovarian,> 100 µM
same,TGI,NCI-H23 lung,> 100 µM
same,TGI,SK-MEL-2 melanoma,> 100 µM
same,TGI,NCI-H460 lung,> 100 µM
same,TGI,COLO 205 colon,> 100 µM
same,TGI,HCT-116 colon,> 100 µM
same,TGI,LOX IMVI melanoma,> 100 µM
same,TGI,EKVX NSCLC,> 100 µM
same,TGI,OVCAR-5 ovarian,> 100 µM
same,TGI,DLD-1 colon,> 100 µM
same,TGI,SR leukemia,> 100 µM
same,TGI,DMS 114 small cell lung,> 100 µM
same,TGI,DMS 273 small cell lung,> 100 µM
same,TGI,NCI-H522 lung,> 100 µM
same,TGI,CCRF-CEM leukemia,> 100 µM
same,TGI,RXF-631 renal,> 100 µM
same,TGI,HCC-2998 colon,> 100 µM
same,TGI,IGROV1 ovarian,> 100 µM
same,TGI,K-562 leukemia,> 100 µM
same,TGI,HOP-62 NSCLC,> 100 µM
O=c1[nH]c(-c2ccccc2)nc2cc(Cl)ccc12,TGI,SK-MEL-28 melanoma,> 100 µM
same,TGI,HCT-15 colon,> 100 µM
same,TGI,KM20L2 colon,> 100 µM
same,TGI,HT29 colon,> 100 µM
same,TGI,SNB-78 CNS,> 100 µM
same,TGI,ACHN renal,> 100 µM
same,TGI,SK-OV-3 ovarian,> 100 µM
same,TGI,MALME-3M melanoma,> 100 µM
same,TGI,MOLT-4 leukemia,> 100 µM
same,TGI,M14 melanoma,> 100 µM
same,TGI,SNB-75 CNS,> 100 µM
same,TGI,UACC-62 melanoma,> 100 µM
same,TGI,NCI-H226 lung,> 100 µM
same,TGI,OVCAR-8 ovarian,> 100 µM
same,TGI,U251 CNS,> 100 µM
same,TGI,OVCAR-4 ovarian,> 100 µM
same,TGI,LXFL 529 NSCLC,> 100 µM
same,TGI,UO-31 renal,> 100 µM
same,TGI,SF-295 CNS,> 100 µM
same,TGI,UACC-257 melanoma,> 100 µM
same,TGI,KM12 colon,> 100 µM
same,TGI,HL-60(TB) leukemia,> 100 µM
same,TGI,SW-620 colon,> 100 µM
same,TGI,M19-MEL melanoma,> 100 µM
same,TGI,RXF 393 renal,> 100 µM
same,TGI,TK-10 renal,> 100 µM
same,TGI,SF-539 CNS,> 100 µM
same,TGI,A549 NSCLC,> 100 µM
same,TGI,RPMI-8226 leukemia,> 100 µM
same,TGI,786-0 renal,> 100 µM
same,TGI,SK-MEL-5 melanoma,> 100 µM
same,TGI,OVCAR-3 ovarian,> 100 µM
same,TGI,NCI-H23 lung,> 100 µM
same,TGI,SK-MEL-2 melanoma,> 100 µM
same,TGI,NCI-H460 lung,> 100 µM
same,TGI,HCT-116 colon,> 100 µM
same,TGI,EKVX NSCLC,> 100 µM
same,TGI,CAKI-1 renal,> 100 µM
same,TGI,OVCAR-5 ovarian,> 100 µM
same,TGI,DLD-1 colon,> 100 µM
same,TGI,DMS 114 small cell lung,> 100 µM
same,TGI,A498 renal,> 100 µM
same,TGI,DMS 273 small cell lung,> 100 µM
same,TGI,CCRF-CEM leukemia,> 100 µM
same,TGI,XF 498 CNS,> 100 µM
same,TGI,RXF-631 renal,> 100 µM
same,TGI,HCC-2998 colon,> 100 µM
same,TGI,IGROV1 ovarian,> 100 µM
same,TGI,K-562 leukemia,> 100 µM
same,TGI,HOP-62 NSCLC,> 100 µM
COc1ccc2c(c1)[n+]([O-])c(C(N)=O)c(N)[n+]2[O-],TGI,SK-MEL-28 melanoma,> 100 µM
same,TGI,HCT-15 colon,> 100 µM
same,TGI,KM20L2 colon,> 100 µM
same,TGI,SN12C renal,> 100 µM
same,TGI,HT29 colon,> 100 µM
same,TGI,SNB-78 CNS,> 100 µM
same,TGI,ACHN renal,> 100 µM
same,TGI,SK-OV-3 ovarian,> 100 µM
same,TGI,MALME-3M melanoma,> 100 µM
same,TGI,M14 melanoma,> 100 µM
same,TGI,SNB-75 CNS,> 100 µM
same,TGI,NCI-H226 lung,> 100 µM
same,TGI,OVCAR-8 ovarian,> 100 µM
same,TGI,U251 CNS,> 100 µM
same,TGI,OVCAR-4 ovarian,> 100 µM
same,TGI,LXFL 529 NSCLC,> 100 µM
same,TGI,UO-31 renal,> 100 µM
same,TGI,SF-295 CNS,> 100 µM
same,TGI,UACC-257 melanoma,94.6 µM
same,TGI,KM12 colon,> 100 µM
same,TGI,SNB-19 CNS,> 100 µM
same,TGI,HL-60(TB) leukemia,> 100 µM
same,TGI,HOP-92 NSCLC,> 100 µM
same,TGI,SW-620 colon,> 100 µM
same,TGI,M19-MEL melanoma,> 100 µM
same,TGI,SF-539 CNS,> 100 µM
same,TGI,A549 NSCLC,> 100 µM
same,TGI,RPMI-8226 leukemia,> 100 µM
same,TGI,HOP-18 NSCLC,> 100 µM
same,TGI,786-0 renal,> 100 µM
same,TGI,SK-MEL-5 melanoma,> 100 µM
same,TGI,OVCAR-3 ovarian,98.5 µM
same,TGI,NCI-H23 lung,97.7 µM
same,TGI,SK-MEL-2 melanoma,> 100 µM
same,TGI,NCI-H460 lung,> 100 µM
same,TGI,COLO 205 colon,46.2 µM
same,TGI,HCT-116 colon,> 100 µM
same,TGI,EKVX NSCLC,> 100 µM
same,TGI,CAKI-1 renal,> 100 µM
same,TGI,OVCAR-5 ovarian,> 100 µM
same,TGI,DLD-1 colon,> 100 µM
same,TGI,SR leukemia,> 100 µM
same,TGI,DMS 114 small cell lung,98.8 µM
same,TGI,A498 renal,> 100 µM
same,TGI,DMS 273 small cell lung,> 100 µM
same,TGI,NCI-H522 lung,31.1 µM
same,TGI,RXF-631 renal,> 100 µM
same,TGI,IGROV1 ovarian,> 100 µM
same,TGI,K-562 leukemia,> 100 µM
same,TGI,HOP-62 NSCLC,> 100 µM
